Data from patent US8138194B2, “Fused bicyclic pyrimidine compounds as aurora kinase inhibitors” (National Health Research Institutes, priority 2008, dated 2012).
Values joined by “and” are separate entries in the source; they are usually repeats but may differ in a detail not shown here. Equal values may be shown once.

target: T1, GST-tAurora A (123-401aa) fusion protein (Homo sapiens, UniProt O14965); test: Aurora Kinase A luminescent kinase assay; type: biochemical; conditions: IC50 (concentration of a test compound at which activity of 50% of Aurora A is inhibited)
T1 construct: GST-tAurora A (123-401aa) fusion protein; made in house; host or cells: Sf9 insect cells (baculovirus, pBacPAK8)
T1 sequence (O14965 123-401): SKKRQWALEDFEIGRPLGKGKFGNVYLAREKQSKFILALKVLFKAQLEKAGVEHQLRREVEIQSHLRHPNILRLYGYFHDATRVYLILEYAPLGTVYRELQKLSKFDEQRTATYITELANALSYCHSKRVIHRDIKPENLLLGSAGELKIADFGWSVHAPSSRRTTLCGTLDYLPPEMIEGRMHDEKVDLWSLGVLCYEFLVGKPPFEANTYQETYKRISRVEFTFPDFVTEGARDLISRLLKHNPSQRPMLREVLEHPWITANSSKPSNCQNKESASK
Procedure: The Aurora A catalytic domain with an N-terminal GST tag was constructed in pBacPAK8 plasmid and expressed in sf9 cells. […] To concentrate GST-tAurora A, buffer was replaced with Tris buffer (100 mM Tris (pH 7.5), 300 mM NaCl, 1 mM EDTA, 4 mM DTT) using Amicon ultra-15 (MWCO:30K, Millipore) to 2.4 mg/ml. After the addition of equal volume of glycerol and 0.04% Triton X-100, the proteins were stored aliquoted at −80° C.
Briefly, a test compound, enzyme, substrate-tetra(LRRWSLG), DTT and ATP were dissolved in Aur buffer (50 mM Tris-HCl pH 7.4, 10 mM NaCl, 10 mM MgCl2, and 100 μg/ml BSA) individually before the assay. […] 5 μM ATP (5 μl), 1 mM DTT (5 μl) and 0.1 mM tetra(LRRWSLG) peptide substrate (5 μl) were added into the reactions of test compounds and GST-tAurora A. The reactions were incubated at 37° C. for 90 min. 50 μl of Kinase-Glo Plus Reagent (V3771, Promega) was added into the reactions, followed by the incubation at 25° C. for 20 min.

| Structure (SMILES) | IC50 |
| --- | --- |
| O=Cc1ccc(-c2c(-c3ccccc3)oc3ncnc(NCCc4ccc(NC(=O)Nc5ccccc5)cc4)c23)o1 [Compound 76] | 0.045 to 0.4 µM and < 1 µM |
| O=C(Cc1ccccc1)Nc1ccc(CCNc2ncnc3oc(-c4ccccc4)c(-c4ccccc4)c23)cc1 [Compound 41] | 0.045 to 0.4 µM and < 1 µM |
| O=C(Nc1ccc(CCNc2ncnc3oc(-c4ccccc4)c(-c4ccccc4)c23)cc1)N1CCN(CCO)CC1 [Compound 34] | < 1 µM |
| O=C(Nc1ccc(CCNc2ncnc3oc(-c4ccccc4)c(-c4ccccc4)c23)cc1)NN1CCCCC1 [Compound 45] | < 1 µM and 0.045 to 0.4 µM |
| O=C(Nc1ccccc1)Oc1ccc(CCNc2ncnc3oc(-c4ccccc4)c(-c4ccccc4)c23)cc1 [Compound 18] | 0.045 to 0.4 µM and < 1 µM |
| O=C(Nc1ccc(CCNc2ncnc3oc(-c4ccccc4)cc23)cc1)Nc1cccnc1 [Compound 231] | < 1 µM |
| COc1ccc(NC(=O)Nc2ccc(CCNc3ncnc4oc(-c5ccccc5)c(-c5ccccc5)c34)cc2)cc1 [Compound 72] | < 1 µM |
| O=C(NCCO)Nc1ccc(CCNc2ncnc3oc(-c4ccccc4)c(-c4ccccc4)c23)cc1 [Compound 199] | 0.045 to 0.4 µM and < 1 µM |
| Cc1csc(NC(=O)Nc2ccc(CCNc3ncnc4oc(-c5ccccc5)c(-c5ccccc5)c34)cc2)n1 [Compound 163] | < 1 µM and 0.045 to 0.4 µM |
| CN(C)Cc1cccc(NC(=O)Nc2ccc(CCNc3ncnc4oc(-c5ccccc5)c(-c5ccccc5)c34)cc2)c1 [Compound 119] | < 1 µM and 0.045 to 0.4 µM |
| O=C(NCCCCl)Nc1ccc(CCNc2ncnc3oc(-c4ccccc4)c(-c4ccccc4)c23)cc1 [Compound 227] | < 1 µM |
| O=C(Nc1ccc(CCNc2ncnc3oc(-c4ccccc4)c(-c4ccccc4)c23)cc1)Nc1ccccn1 [Compound 146] | 0.045 to 0.4 µM and < 1 µM |
| CCCCCCNC(=O)Nc1ccc(CCNc2ncnc3oc(-c4ccccc4)c(-c4ccccc4)c23)cc1 [Compound 69] | < 1 µM |
| CN(C)C(=O)Nc1ccc(CCNc2ncnc3oc(-c4ccccc4)c(-c4ccccc4)c23)cc1 [Compound 9] | 0.045 to 0.4 µM and < 1 µM |
| CN(C)CCNC(=O)Nc1ccc(CCNc2ncnc3oc(-c4ccccc4)cc23)cc1 [Compound 233] | < 1 µM |
| O=C(Nc1ccc(CCNc2ncnc3oc(-c4ccccc4)c(Cl)c23)cc1)c1ccccc1 [Compound 228] | < 1 µM |
| CN1CCN(Cc2cccc(NC(=O)Nc3ccc(CCNc4ncnc5oc(-c6ccccc6)c(-c6ccccc6)c45)cc3)c2)CC1 [Compound 122] | < 1 µM |
| NC(=O)Nc1ccc(CCNc2ncnc3oc(-c4ccccc4)c(-c4ccccc4)c23)cc1 [Compound 7] | < 1 µM |
| O=C(Nc1ccc(CCNc2ncnc3oc(-c4ccccc4)c(-c4ccccc4)c23)cc1)Nc1ccccc1[N+](=O)[O-] [Compound 97] | 0.045 to 0.4 µM and < 1 µM |
| Cc1cc(NC(=O)Nc2ccc(CCNc3ncnc4oc(-c5ccccc5)c(-c5ccccc5)c34)cc2)n[nH]1 [Compound 238] | < 1 µM |
| O=C(Nc1ccc(CCNc2ncnc3oc(-c4ccccc4)cc23)cc1)c1ccccc1 [Compound 229] | < 1 µM |
| O=C(Nc1ccccc1)Nc1ccc(CCNc2ncnc3oc(-c4ccccc4)c(-c4cccc(O)c4)c23)cc1 [Compound 78] | 0.045 to 0.4 µM and < 1 µM |
| CC(=O)Nc1cccc(NC(=O)Nc2ccc(CCNc3ncnc4oc(-c5ccccc5)c(-c5ccccc5)c34)cc2)c1 [Compound 64] | < 1 µM |
| Nc1ccc(CNc2ncnc3oc(-c4ccccc4)c(-c4ccccc4)c23)cc1 [Compound 1, N-(4-aminobenzyl)-5,6-diphenylfuro[2,3-d]pyrimidin-4-amine] | < 1 µM |
| O=C(Nc1ccccc1)Nc1ccc(CCNc2ncnc3oc4c(c23)CCCC4)cc1 [Compound 173] | < 1 µM |
| CCOC(=O)CNC(=O)Nc1ccc(CCNc2ncnc3oc(-c4ccccc4)c(-c4ccccc4)c23)cc1 [Compound 200] | < 1 µM |

| Structure (SMILES) | IC50 |
| --- | --- |
| CC(=O)c1cccc(NC(=O)Nc2ccc(CCNc3ncnc4oc(-c5ccccc5)c(-c5ccccc5)c34)cc2)c1 [Compound 31] | 0.045 to 0.4 µM and < 1 µM |
| CNC(=O)Nc1ccc(CCNc2ncnc3oc(-c4ccccc4)c(-c4ccccc4)c23)cc1 [Compound 8] | 0.045 to 0.4 µM and < 1 µM |
| O=C(Nc1ccc(CCNc2ncnc3oc(-c4ccccc4)c(-c4ccccc4)c23)cc1)Oc1ccccc1 [Compound 17] | 0.045 to 0.4 µM and < 1 µM |
| Cc1ccc(NC(=O)Nc2ccc(CCNc3ncnc4oc(-c5ccccc5)c(-c5ccccc5)c34)cc2)cc1 [Compound 98] | 0.045 to 0.4 µM and < 1 µM |
| Nc1ccc(CCOc2ncnc3oc(-c4ccccc4)c(-c4ccccc4)c23)cc1 [Compound 26] | < 1 µM |
| CN1CCN(Cc2ccc(NC(=O)Nc3ccc(CCNc4ncnc5oc(-c6ccccc6)c(-c6ccccc6)c45)cc3)cc2)CC1 [Compound 118] | < 1 µM |
| CN1CCN(Cc2ccccc2NC(=O)Nc2ccc(CCNc3ncnc4oc(-c5ccccc5)c(-c5ccccc5)c34)cc2)CC1 [Compound 126] | < 1 µM |
| O=C(NCc1ccccc1)Nc1ccc(CCNc2ncnc3oc(-c4ccccc4)c(-c4ccccc4)c23)cc1 [Compound 10] | 0.045 to 0.4 µM and < 1 µM |
| O=C(Nc1ccc(CCNc2ncnc3oc(-c4ccccc4)c(-c4ccccc4)c23)cc1)N1CCN(c2ccc(F)cc2)CC1 [Compound 22] | < 1 µM |
| O=C(Nc1ccc(CCNc2ncnc3oc(-c4ccccc4)c(-c4ccccc4)c23)cc1)NC1CC1 [Compound 201] | < 1 µM and 0.045 to 0.4 µM |
| O=C(NCCCl)Nc1ccc(CCNc2ncnc3oc(-c4ccccc4)c(-c4ccccc4)c23)cc1 [Compound 19] | 0.045 to 0.4 µM and < 1 µM |
| COc1ccc(-c2c(-c3ccccc3)oc3ncnc(NCCc4ccc(NC(=O)Nc5ccccc5)cc4)c23)cc1 [Compound 56] | 0.045 to 0.4 µM and < 1 µM |
| O=C(Nc1ccc(CCNc2ncnc3oc(-c4ccccc4)c(-c4ccccc4)c23)cc1)Nc1ccc(F)c(F)c1 [Compound 62] | 0.045 to 0.4 µM and < 1 µM |
| O=C(Nc1ccc(CCNc2ncnc3oc(-c4ccccc4)c(-c4ccccc4)c23)cc1)Nc1ccc2c(c1)OCO2 [Compound 73] | 0.045 to 0.4 µM and < 1 µM |
| CCCCCNC(=O)Nc1ccc(CCNc2ncnc3oc(-c4ccccc4)c(-c4ccccc4)c23)cc1 [Compound 68] | < 1 µM |
| CN(C)c1ccc(NC(=O)Nc2ccc(CCNc3ncnc4oc(-c5ccccc5)c(-c5ccccc5)c34)cc2)cc1 [Compound 100] | < 1 µM |
| O=C(Nc1ccc(CCNc2ncnc3oc(-c4ccccc4)c(-c4ccccc4)c23)cc1)Nc1cccc(C(F)(F)F)c1 [Compound 29] | 0.045 to 0.4 µM and < 1 µM |
| CCOC(=O)c1c(-c2ccccc2)oc2ncnc(NCCc3ccc(NC(=O)Nc4ccccc4)cc3)c12 [Compound 107] | < 1 µM |
| S=C(Nc1ccc(CCNc2ncnc3oc(-c4ccccc4)c(-c4ccccc4)c23)cc1)Oc1ccccc1 [Compound 74] | < 1 µM |
| COc1ccc(NC(=O)Nc2ccc(CCNc3ncnc4oc(-c5ccccc5)c(-c5ccccc5)c34)cc2)cc1OC [Compound 95] | < 1 µM |
| O=C(Nc1ccc(CCNc2ncnc3oc(-c4ccccc4)c(-c4ccccc4)c23)cc1)Nc1cccc(Cl)c1 [Compound 15] | 0.045 to 0.4 µM and < 1 µM |
| O=C(Nc1ccc(CCNc2ncnc3oc(-c4ccccc4)c(-c4ccccc4)c23)cc1)NC1CCCCC1 [Compound 71] | 0.045 to 0.4 µM and < 1 µM |
| COC(=O)C(Cc1ccc(NC(=O)Nc2ccccc2)cc1)Nc1ncnc2oc(-c3ccccc3)c(-c3ccccc3)c12 (stereo not drawn) [Compound 52] | < 1 µM and 0.045 to 0.4 µM |
| O=C(Nc1ccc(CCNc2ncnc3oc(-c4ccccc4)c(-c4ccccc4)c23)cc1)Nc1cccc(Br)c1 [Compound 16] | < 1 µM |
| CN(C)CCNC(=O)Nc1ccc(CCNc2ncnc3oc(-c4ccccc4)c(Cl)c23)cc1 [Compound 234] | < 1 µM |
